Test results from US11725000B2, “Apoptosis inhibitors” (National Institute of Biological Sciences, Beijing, priority 2017, dated 2023).
pEC50: −log10 of the molar value. Where two headings read alike, the source gives them in different places.

Test system: U2OS_Bim cells
Assay: Apoptosis inhibition assay (Bim-induced apoptosis, cell viability by ATP level)
Assay type: cell-based
Conditions: U2OS_Bim cells, read-out: EC50
Method in brief: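 Apoptosis was triggered by doxycycline (0.1 μg/mL) induction of Bim, one hour after compound addition to U2OS_Bim cells. Survival was measured after 24 h from cellular ATP (CellTiter-Glo), relative to DMSO, with zVAD at 20 μM as rescue control. Data are duplicate means, some estimated from preliminary results.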

[1] = estimated based on preliminary results, numbering of Tables 4a/4b
[2] = means of duplicates, numbering of Tables 4a/4b
[3] = estimated (*Est.) / preliminary results, numbering of Tables 4a/4b

| Compound | pEC50 [2] | other results |
| --- | --- | --- |
| C[S+]([O-])c1nc(-c2ccc(=O)n(Cc3ccc4ccncc4c3)c2)cc(C(F)(F)F)n1 (centres unmarked) [Compound 251] | – | pEC50 [1]: > 5.00 |
| CS(=O)(=O)c1nc(CF)cc(-c2cc(F)c(=O)n(Cc3ccc4c(c3)OCO4)c2)n1 [Compound 334, 1-(benzo[d][1,3]dioxol-5-ylmethyl)-3-fluoro-5-(6-(fluoromethyl)-2-(methylsulfonyl)pyrimidin-4-yl)pyridin-2 (1H)-one] | 5.00 to 6.00 | – |
| COc1cccc(Cn2ccc(-c3cc(C(F)(F)F)nc(S(C)(=O)=O)n3)c2)c1 [Compound 89, 4-(1-(3-methoxybenzyl)-1H-pyrrol-3-yl)-2-(methylsulfonyl)-6-(trifluoromethyl)pyrimidine] | > 4.00 | – |
| Cc1cc(-c2cc(F)c(=O)n(Cc3ccc4c(c3)OCO4)c2)nc(S(=O)(=O)CCC(OCc2ccccc2F)c2ccccn2)n1 (centres unmarked) [Compound 383] | – | pEC50 [3]: 6.00 to 9.00 |
| Cc1cc(-c2cc(F)c(=O)n(Cc3ccc4c(c3)OCO4)c2)nc(S(=O)(=O)CCCC(=O)N(c2ccccc2)C(C)(C)C)n1 [Compound 371] | – | pEC50 [3]: 6.00 to 9.00 |
| Cc1cc(-c2cc(F)c(=O)n(Cc3ccc4c(c3)OCO4)c2)nc(S(=O)(=O)CCC(OCc2ccccc2F)C2CCCCC2)n1 (centres unmarked) [Compound 397] | – | pEC50 [3]: 6.00 to 9.00 |
| COC(=O)c1ccccc1-c1cc(C(F)(F)F)nc(S(C)(=O)=O)n1 [Compound 58, methyl 2-(2-(methylsulfonyl)-6-(trifluoromethyl)pyrimidin-4-yl)benzoate] | > 4.00 | – |
| COc1ccc(Cn2cc(-c3cc(C(F)(F)F)nc(S(=O)(=O)Cc4cccnc4)n3)ccc2=O)cc1OC [Compound 188] | – | pEC50 [1]: > 5.00 |
| Cc1cc(-c2cc(F)c(=O)n(Cc3ccc4c(c3)OCO4)c2)nc(S(=O)(=O)CCC(OCc2ccc(F)cc2F)c2ccccc2)n1 (centres unmarked) [Compound 317, 1-(benzo[d][1,3]dioxol-5-ylmethyl)-5-(2-((3-((2,4-difluorobenzyl)oxy)-3-phenylpropyl)sulfonyl)-6-methylpyrimidin-4-yl)-3-fluoropyridin-2 (1H)-one] | 6.00 to 9.00 | – |
| C#Cc1cccc(Cn2cc(-c3cc(C(F)(F)F)nc(S(C)(=O)=O)n3)ccc2=O)c1 [Compound 120, 1-(3-ethynylbenzyl)-5-(2-(methylsulfonyl)-6-(trifluoromethyl)pyrimidin-4-yl) pyridin-2 (1H)-one] | 6.00 to 9.00 | – |
| CS(=O)(=O)c1nc(-c2cccc(Cn3ccccc3=O)c2)cc(C(F)(F)F)n1 [Compound 70, 1-(3-(2-(methylsulfonyl)-6-(trifluoromethyl)pyrimidin-4-yl)benzyl) pyridin-2 (1H)-one] | 5.00 to 6.00 | – |
| CS(=O)(=O)c1nc(-c2cccc3ccccc23)cc(C(F)(F)F)n1 [Compound 76, 2-(methylsulfonyl)-4-(naphthalen-1-yl)-6-(trifluoromethyl)pyrimidine] | 4.70 to 6.00 | – |
| CNC(=O)c1ccccc1-c1cc(C(F)(F)F)nc(S(C)(=O)=O)n1 [Compound 67, N-methyl-2-(2-(methylsulfonyl)-6-(trifluoromethyl)pyrimidin-4-yl)benzamide] | > 4.00 | – |
| COc1ccc(Cn2cc(-c3cc(C(F)(F)F)nc(S(C)(=O)=O)n3)ccc2=O)cc1OC [Compound 127, 1-(3,4-dimethoxybenzyl)-5-(2-(methylsulfonyl)-6-(trifluoromethyl)pyrimidin-4-yl)pyridin-2 (1H)-one] | 6.00 to 9.00 | – |
| C#CCOc1cccc(-c2cc(C(F)(F)F)nc(S(C)(=O)=O)n2)c1 [Compound 71, 2-(methylsulfonyl)-4-(3-(prop-2-yn-1-yloxy)phenyl)-6-(trifluoromethyl) pyrimidine] | > 4.00 | – |
| Cc1cc(-c2cc(F)c(=O)n(Cc3ccc4c(c3)OCO4)c2)nc(S(=O)(=O)CCC(OCc2ccccc2F)c2cccs2)n1 (centres unmarked) [Compound 389] | – | pEC50 [3]: 6.00 to 9.00 |
| COc1ccc(Cn2cc(-c3cc(C(F)(F)F)nc(S(=O)(=O)CCCC(=O)N(C)C)n3)ccc2=O)cc1OC [Compound 151, 4-((4-(1-(3,4-dimethoxybenzyl)-6-oxo-1,6-dihydropyridin-3-yl)-6-(trifluoromethyl)pyrimidin-2-yl)sulfonyl)-N,N-dimethylbutanamide] | 6.00 to 9.00 | – |
| C#CCCS(=O)(=O)c1nc(-c2ccc(=O)n(Cc3ccc(OC)c(OC)c3)c2)cc(C(F)(F)F)n1 [Compound 141, 5-(2-(but-3-yn-1-ylsulfonyl)-6-(trifluoromethyl)pyrimidin-4-yl)-1-(3,4-dimethoxybenzyl)pyridin-2 (1H)-one] | 6.00 to 9.00 | – |
| CS(=O)(=O)c1nc(-c2ccc(=O)n(Cn3ccc4ccccc43)c2)cc(C(F)(F)F)n1 [Compound 256] | – | pEC50 [1]: > 5.00 |
| Cc1cc(-c2cc(F)c(=O)n(Cc3ccc4nnn(C)c4c3)c2)nc(S(=O)(=O)CCCN(c2ccccc2)C2CCC2)n1 [Compound 379] | – | pEC50 [3]: 6.00 to 9.00 |
| CCCCCCNC(=O)CCCS(=O)(=O)c1nc(-c2ccc(=O)n(Cc3ccc(OC)c(OC)c3)c2)cc(C(F)F)n1 [Compound 183, 4-((4-(difluoromethyl)-6-(1-(3,4-dimethoxybenzyl)-6-oxo-1,6-dihydropyridin-3-yl)pyrimidin-2-yl)sulfonyl)-N-hexylbutanamide] | 6.00 to 9.00 | – |
| COc1ccc(Cn2cc(-c3cc(C(F)F)nc(S(=O)(=O)CCCO)n3)ccc2=O)cc1OC [Compound 273, 5-(6-(difluoromethyl)-2-((3-hydroxypropyl)sulfonyl)pyrimidin-4-yl)-1-(3,4-dimethoxybenzyl)pyridin-2 (1H)-one] | – | pEC50 [1]: 5.00 to 6.00 |

| Compound | pEC50 [2] | other results |
| --- | --- | --- |
| CCCCCCCS(=O)(=O)c1nc(-c2ccc(=O)n(Cc3ccc(OC)c(OC)c3)c2)cc(C(F)(F)F)n1 [Compound 146, 1-(3,4-dimethoxybenzyl)-5-(2-(heptylsulfonyl)-6-(trifluoromethyl)pyrimidin-4-yl)pyridin-2 (1H)-one] | 6.00 to 9.00 | – |
| CS(=O)(=O)c1nc(-c2cccc(C(N)=O)c2)cc(C(F)(F)F)n1 [Compound 66, 3-(2-(methylsulfonyl)-6-(trifluoromethyl)pyrimidin-4-yl)benzamide] | 5.00 to 6.00 | – |
| Cc1cc(-c2cc(F)c(=O)n(Cc3ccc4c(c3)OCO4)c2)nc(S(=O)(=O)CCC(OCc2ccccc2F)c2ccc3ccoc3c2)n1 (centres unmarked) [Compound 394] | – | pEC50 [3]: 6.00 to 9.00 |
| CS(=O)(=O)c1nc(-c2ccc(=O)n(Cc3ccc4ncccc4c3)c2)cc(C(F)(F)F)n1 [Compound 246] | – | pEC50 [1]: > 5.00 |
| C[S+]([O-])c1nc(-c2ccc(=O)n(Cn3ccc4ccccc43)c2)cc(C(F)(F)F)n1 (centres unmarked) [Compound 257] | – | pEC50 [1]: > 5.00 |
| C[S+]([O-])c1nc(-c2ccc(=O)n(Cc3ccc4c(c3)OCCO4)c2)cc(C(F)(F)F)n1 (centres unmarked) [Compound 231] | – | pEC50 [1]: > 5.00 |
| COc1ccc(Cn2cc(-c3cc(C(F)(F)F)nc(S(=O)(=O)CCCC(=O)NC45CC6CC(CC(C6)C4)C5)n3)ccc2=O)cc1OC [Compound 289] | 6.00 to 9.00 | pEC50 (DOX-induced Bim overexpression, viability 24 h after DOX): 9.38 |
| Cc1cc(-c2cc(F)c(=O)n(Cc3ccc4c(c3)OCCN4)c2)nc(S(=O)(=O)CCC(OCc2ccccc2F)c2ccccc2)n1 (centres unmarked) [Compound 358] | – | pEC50 [3]: 6.00 to 9.00 |
| Cc1cc(-c2ccc(=O)n(Cc3ccc4nnn(C)c4c3)n2)nc(S(=O)(=O)CCC(OCc2ccccc2F)c2ccccc2)n1 (centres unmarked) [Compound 369] | – | pEC50 [3]: 6.00 to 9.00 |
| CS(=O)(=O)c1nc(-c2ccc(=O)n(Cc3ccc4c(c3)OCO4)c2)cc(C(F)(F)F)n1 [Compound 136, 1-(benzo[d][1,3]dioxol-5-ylmethyl)-5-(2-(methylsulfonyl)-6-(trifluoromethyl)pyrimidin-4-yl)pyridin-2 (1H)-one] | 6.00 to 9.00 | – |
| Cc1cc(-c2cc(F)c(=O)n(Cc3ccc4c(c3)OCO4)c2)nc(S(=O)(=O)CCC(Oc2cccnc2)c2ccccc2)n1 (centres unmarked) [Compound 333, 1-(benzo[d][1,3]dioxol-5-ylmethyl)-3-fluoro-5-(6-methyl-2-((3-phenyl-3-(pyridin-3-yloxy)propyl)sulfonyl)pyrimidin-4-yl)pyridin-2 (1H)-one] | 6.00 to 9.00 | – |
| CS(=O)(=O)c1nc(-c2ccc(=O)n(Cc3ccc4nccnc4c3)c2)cc(C(F)(F)F)n1 [Compound 244] | – | pEC50 [1]: > 5.00 |
| Cc1cc(-c2cc(F)c(=O)n(Cc3ccnc(N(C)CO)c3)c2)nc(S(=O)(=O)CCC(OCc2ccccc2F)c2ccccc2)n1 (centres unmarked) [Compound 361] | – | pEC50 [3]: 6.00 to 9.00 |
| Cc1cc(-c2cc(F)c(=O)n(Cc3ccc4[nH]c(=O)c(=O)[nH]c4c3)c2)nc(S(=O)(=O)CCC(OCc2ccccc2F)c2ccccc2)n1 (centres unmarked) [Compound 345] | – | pEC50 [3]: 6.00 to 9.00 |
| CS(=O)(=O)c1nc(-c2ccc(=O)n(Cc3ccccc3Cl)c2)cc(C(F)(F)F)n1 [Compound 104, 1-(2-chlorobenzyl)-5-(2-(methylsulfonyl)-6-(trifluoromethyl)pyrimidin-4-yl)pyridin-2 (1H)-one] | 6.00 to 9.00 | – |
| Cc1cc(-c2cc(F)c(=O)n(Cc3ccc4c(c3)OCO4)c2)nc(S(=O)(=O)CCC(OCc2ccccc2F)c2ccncc2)n1 (centres unmarked) [Compound 385] | – | pEC50 [3]: 6.00 to 9.00 |
| CCOc1cccc(Cn2cc(-c3cc(C)nc(S(=O)(=O)CCC(OCc4ccc(F)cc4F)c4ccccc4)n3)cc(F)c2=O)c1 (centres unmarked) [Compound 311, 5-(2-((3-((2,4-difluorobenzyl)oxy)-3-phenylpropyl)sulfonyl)-6-methylpyrimidin-4-yl)-1-(3-ethoxybenzyl)-3-fluoropyridin-2 (1H)-one] | 6.00 to 9.00 | – |
| Cc1cc(-c2cc(F)c(=O)n(Cc3ccc4c(c3)OCO4)c2)nc(S(=O)(=O)CCCN(c2ccccc2)C2CCC2)n1 [Compound 376] | – | pEC50 [3]: 6.00 to 9.00 |
| CS(=O)(=O)c1nc(-c2ccc(=O)n(Cc3ccc4ocnc4c3)c2)cc(C(F)(F)F)n1 [Compound 224] | – | pEC50 [1]: > 5.00 |
| Cc1cc(-c2cc(F)c(=O)n(Cc3ccc(Cl)c(Cl)c3)c2)nc(S(=O)(=O)CCC(OCc2ccc(F)cc2F)c2ccccc2)n1 (centres unmarked) [Compound 316, 1-(3,4-dichlorobenzyl)-5-(2-(3-(2,4-difluorobenzyloxy)-3-phenylpropylsulfonyl)-6-methylpyrimidin-4-yl)-3-fluoropyridin-2 (1H)-one] | 5.00 to 6.00 | – |
| CS(=O)(=O)c1nc(-c2ccc(=O)n(Cc3cccc(Cl)c3)c2)cc(C(F)(F)F)n1 [Compound 105, 1-(3-chlorobenzyl)-5-(2-(methylsulfonyl)-6-(trifluoromethyl)pyrimidin-4-yl)pyridin-2 (1H)-one] | 6.00 to 9.00 | – |
